Measurements from PubChem BioAssay AID1845203 (Molecular Pharmacology Branch, DTP, NCI, 2023).
pIC50: −log10 of the molar value.

Tested on: G-401 tumor spheroids, viability % test/control
Test: Anticancer human tumor G-401 cell line growth inhibition;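 further: spheroids exposed to compound for 7 days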;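 on viability, T/C: 100% = DMSO vehicle-treated spheroids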
Details: spheroids with HUVEC and MSC; for pIC50: curve of first compound; for viability, T/C: stronger effect = lower value
Outline: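 Complex spheroids of malignant cells with endothelial cells and mesenchymal stem cells; agents alone or combined, from near clinical Cmax (or 10 microM if unknown) down in half-log steps, 0.25% DMSO final.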

[1] = second compound 1 µM, first compound 0.00949 µM
[2] = second compound 1 µM, first compound 0.03 µM
[3] = second compound 1 µM, first compound 0.0949 µM
[4] = second compound 1 µM, first compound 0.3 µM
[5] = second compound 1 µM, first compound 0.949 µM
[6] = second compound 1 µM, first compound 3 µM
[7] = second compound 3.16 µM, first compound 0.00949 µM
[8] = second compound 3.16 µM, first compound 0.03 µM
[9] = second compound 3.16 µM, first compound 0.0949 µM
[10] = second compound 3.16 µM, first compound 0.3 µM
[11] = second compound 3.16 µM, first compound 0.949 µM
[12] = second compound 3.16 µM, first compound 3 µM
[13] = second compound 10 µM, first compound 0.00949 µM
[14] = second compound 10 µM, first compound 0.03 µM
[15] = second compound 10 µM, first compound 0.0949 µM
[16] = second compound 10 µM, first compound 0.3 µM
[17] = second compound 10 µM, first compound 0.949 µM
[18] = second compound 10 µM, first compound 3 µM
[19] = second compound 31.6 µM, first compound 0.00949 µM
[20] = second compound 31.6 µM, first compound 0.03 µM
[21] = second compound 31.6 µM, first compound 0.0949 µM
[22] = second compound 31.6 µM, first compound 0.3 µM
[23] = second compound 31.6 µM, first compound 0.949 µM
[24] = second compound 31.6 µM, first compound 3 µM
[25] = second compound 100 µM, first compound 0.00949 µM
[26] = second compound 100 µM, first compound 0.03 µM
[27] = second compound 100 µM, first compound 0.0949 µM
[28] = second compound 100 µM, first compound 0.3 µM
[29] = second compound 100 µM, first compound 0.949 µM
[30] = second compound 100 µM, first compound 3 µM

SMILES | pIC50 (second compound 1 µM) | pIC50 (second compound 3.16 µM) | pIC50 (second compound 10 µM) | pIC50 (second compound 31.6 µM) | pIC50 (second compound 100 µM) | viability, T/C [3] [%] | viability, T/C [4] [%] | viability, T/C [5] [%] | viability, T/C [6] [%] | viability, T/C [9] [%] | viability, T/C [10] [%] | viability, T/C [11] [%] | viability, T/C [12] [%] | viability, T/C [15] [%] | viability, T/C [16] [%] | viability, T/C [17] [%] | viability, T/C [18] [%] | viability, T/C [21] [%] | viability, T/C [22] [%] | viability, T/C [23] [%] | further results
CNCc1ccc(-c2cc(-c3nc(-c4ccc(S(=O)(=O)C(C)C)cc4)cnc3N)on2)cc1 + Cn1nnc2c(C(N)=O)ncn2c1=O | 5.70 | 5.75 | 5.97 | 6.04 | 6.49 | 106 | 106 | 72.7 | 37.8 | 104 | 103 | 64.1 | 38.4 | 100 | 99.2 | 52.5 | 25.4 | 96.2 | 85.1 | 49 | viability, T/C [1]: 105%; viability, T/C [2]: 108%; viability, T/C [7]: 109%; viability, T/C [8]: 105%; viability, T/C [13]: 103%; viability, T/C [14]: 97.6%; viability, T/C [19]: 93.9%; viability, T/C [20]: 94.7%; viability, T/C [24]: 20.4%; viability, T/C [25]: 96.3%; viability, T/C [26]: 98.7%; viability, T/C [27]: 90.4%; viability, T/C [28]: 51.7%; viability, T/C [29]: 27.1%; viability, T/C [30]: 25.7%
Cc1sc2c(c1C)C(c1ccc(Cl)cc1)=NC(CC(=O)Nc1ccc(O)cc1)c1nnc(C)n1-2 (stereo not given) + Cn1nnc2c(C(N)=O)ncn2c1=O | 6.77 | 6.75 | 6.79 | 6.83 | 6.83 | 67.4 | 37.6 | 13.4 | 10.3 | 65.1 | 35.6 | 19.7 | 8.06 | 63.5 | 38 | 20.9 | 9.13 | 56.1 | 34 | 20.5 | viability, T/C [1]: 108%; viability, T/C [2]: 83%; viability, T/C [7]: 93%; viability, T/C [8]: 91.8%; viability, T/C [13]: 101%; viability, T/C [14]: 77.3%; viability, T/C [19]: 84.5%; viability, T/C [20]: 82.6%; viability, T/C [24]: 4.42%; viability, T/C [25]: 102%; viability, T/C [26]: 83%; viability, T/C [27]: 64.8%; viability, T/C [28]: 30.4%; viability, T/C [29]: 11.2%; viability, T/C [30]: 4.09%
Cn1ncnc1[C@H]1c2n[nH]c(=O)c3cc(F)cc(c23)N[C@@H]1c1ccc(F)cc1 + Cn1nnc2c(C(N)=O)ncn2c1=O | 6.81 | 7.24 | 7.65 | > 8.02 | > 8.02 | 57.2 | 39.6 | 23.3 | 12.6 | 45.3 | 30.5 | 23.4 | 13.2 | 32.4 | 23.3 | 15.7 | 10.4 | 16.4 | 13.9 | 10.4 | viability, T/C [1]: 81.7%; viability, T/C [2]: 73.9%; viability, T/C [7]: 87.8%; viability, T/C [8]: 54.6%; viability, T/C [13]: 63%; viability, T/C [14]: 44.9%; viability, T/C [19]: 35.6%; viability, T/C [20]: 21.3%; viability, T/C [24]: 9.51%; viability, T/C [25]: 14.1%; viability, T/C [26]: 11.6%; viability, T/C [27]: 10.8%; viability, T/C [28]: 10.3%; viability, T/C [29]: 8.87%; viability, T/C [30]: 6.62%
O=C(c1cc(Cc2n[nH]c(=O)c3ccccc23)ccc1F)N1CCN(C(=O)C2CC2)CC1 + Cn1nnc2c(C(N)=O)ncn2c1=O | 4.91 | 5.08 | 5.29 | 5.67 | 6.40 | 102 | 102 | 93.3 | 83 | 94.4 | 96.5 | 96.7 | 80.4 | 91.2 | 95 | 94.5 | 66.7 | 91.6 | 83.2 | 79 | viability, T/C (second compound 1 µM, first compound 9.49 µM): 54%; viability, T/C (second compound 1 µM, first compound 30 µM): 32.9%; viability, T/C (second compound 3.16 µM, first compound 9.49 µM): 46.6%; viability, T/C (second compound 3.16 µM, first compound 30 µM): 28.3%; viability, T/C (second compound 10 µM, first compound 9.49 µM): 31.3%; viability, T/C (second compound 10 µM, first compound 30 µM): 20.4%; viability, T/C [24]: 37.4%; viability, T/C (second compound 31.6 µM, first compound 9.49 µM): 19.5%; viability, T/C (second compound 31.6 µM, first compound 30 µM): 15.4%; viability, T/C [27]: 65.8%; viability, T/C [28]: 58.1%; viability, T/C [29]: 26.8%; viability, T/C [30]: 17.9%; viability, T/C (second compound 100 µM, first compound 9.49 µM): 14.3%; viability, T/C (second compound 100 µM, first compound 30 µM): 13.3%
